Literature values in article PMC11542186, “Pin1 WW Domain Ligand Library Synthesized with an Easy Solid-Phase Phosphorylating Reagent” (Biochemistry, 2024).
Where a SMILES comes first, the peptide text is derived from it. [ ]: non-standard residue; d: D form. pT = C[C@@H](OP(=O)(O)O)[C@H](N)C(=O)O

Target: isolated Pin1 WW domain
Design: method as in PMID 16033261
Settings: measured by NMR for the isolated Pin1 WW domain; cited from earlier work

CC(=O)N[C@H](C(=O)N1CCC[C@H]1C(N)=O)[C@@H](C)OP(=O)(O)O [Ac–pThr–Pro–NH2] (Ac-[pT]-Pro-NH2)
Kd: 150 µM
